The results in this text go back to ChEMBL document CHEMBL3797044, “Computer-aided design, synthesis, and biological evaluation of new indole-2-carboxamide derivatives as PI3Kα/EGFR inhibitors” (Bioorg Med Chem Lett, 2016).

Molecules are shown by their SMILES. Active and inactive are the calls of the source. No cut-off for these calls is given here.

For one assay, the system named is K562. The assay can be described thus: Cytotoxicity against human K562 cells assessed as growth inhibition after 24 hrs by MTT assay. It is filed as functional, cell-based. The settings on record: K562, 24 h. On the technique in general: Tetrazolium dyes change colour on reduction, which living cells bring about.
The next assay concerns HCT-116. As to the kind of experiment: Induction of apoptosis in human HCT116 assessed as increase in caspase-3 activity at 120 uM incubated for 48 hrs followed by DEVD-pNA substrate addition by caspase-3 colorimetric assay. Type of assay: functional.
In a further assay the test system is MDA-MB-231. As to the kind of experiment: Induction of apoptosis in human MDA231 assessed as increase in caspase-3 activity at 120 uM incubated for 48 hrs followed by DEVD-pNA substrate addition by caspase-3 colorimetric assay. It is filed as functional.

As usually defined, the IC50 is the concentration at which inhibition is half-maximal. As to `CC(=O)c1cccc(NC(=O)c2cc3ccccc3[nH]2)c1`, the 50% inhibitory concentration (IC50) with K562 was more than 100 µM. Same read-out and setting: in the case of `O=C(c1ccccc1)c1ccc(NC(=O)c2cc3ccccc3[nH]2)cc1` it was more than 100 µM. Take `O=C(Nc1cccc(C(O)c2ccccc2)c1)c1cc2ccccc2[nH]1` (stereo not given): in the assay on K562, the IC50 was more than 100 µM. The outcome in the assay with HCT-116 and with MDA-MB-231 was Active.

Take `CC(O)c1cccc(NC(=O)c2cc3ccccc3[nH]2)c1` (stereo not given): the IC50 in the assay on K562 was more than 100 µM.

As to `O=C(Nc1ccc(C(O)c2ccccc2)cc1)c1cc2ccccc2[nH]1` (stereo not given), in the assay with K562, the IC50 is more than 100 µM. `CC(O)c1ccc(NC(=O)c2cc3ccccc3[nH]2)cc1` (stereo not given): the IC50 in the assay on K562 was more than 100 µM. The same measure, in the same setting: with `CC(=O)c1ccc(NC(=O)c2cc3ccccc3[nH]2)cc1` the figure was more than 100 µM.

For the compound `O=C(c1ccccc1)c1cccc(NC(=O)c2cc3ccccc3[nH]2)c1`, in the assay with K562, the 50% inhibitory concentration (IC50) is more than 100 µM.
